The text below walks through data of ChEMBL document CHEMBL1201862, “PubChem BioAssay data set” (2004).

Holding throughout (assay): DTP human tumour cell line panel, 48 h
Assay [1] relates to NCI/ADR-RES.
Assay [2] deals with IGROV-1.
Assay [3] deals with SF-539.
Assay [4] concerns SR.
Assay [5] has as its system TK-10.
Assay [6] deals with SF-295.
Assay [7] has as its system MDA-MB-435.
In assay [8] the test system is CAKI-1.
In assay [9] the test system is NCI-H23.
The test system of assay [10] is SK-OV-3.
Assay [11] has as its system OVCAR-8.
The subject of assay [12] is RXF 393.
Assay [13] relates to HOP-62.
The test system of assay [14] is HCT-116.
Assay [15] deals with K562.
The subject of assay [16] is 786-0.
Assay [17] concerns RPMI-8226.
Assay [18] deals with NCI-H226.
Assay [19] concerns SN12C.
The subject of assay [20] is MDA-N.

As a reminder, the GI50 is the concentration giving 50% growth inhibition.

Molecules are shown by their SMILES.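 Compound exposure: 48 hours, 5 concentrations, 96-well plates. Abbreviation: GI50, concentration required for 50% inhibition of growth.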 The source made the active and inactive calls. Rule as the data show it: active = GI50 up to about 1.1 µM and inactive = higher.

Take `CN(O)C(=S)c1ccccc1`: the GI50 was 0.746 µM (active) in [1]; 3.52 µM (inactive) in assay [2]; 9.59 µM (inactive) in [3]; 0.178 µM (active) in assay [4]; > 78.2 µM (inactive) in [5]; 3.48 µM (inactive) in assay [6]. In addition, the GI50 in [7] is 3.38 µM (inactive); in assay [8], 4.25 µM (inactive); in assay [9] it was 1.91 µM (inactive); in assay [10] it was 11.3 µM (inactive); in assay [11], 2.47 µM (inactive); in assay [12], 3.19 µM (inactive). For the same molecule, the GI50 was 11.4 µM (inactive) in assay [13]; 1.49 µM (inactive) in [14]; 0.347 µM (active) in assay [15]; 1.38 µM (inactive) in [16]; 0.325 µM (active) in assay [17]; 34.2 µM (inactive) in assay [18]. Also, the GI50 in [19] was 5.18 µM (inactive); in assay [20], 6.95 µM (inactive).

For `O=C(CSc1n[nH]c(=O)[nH]c1=O)NNC(=O)c1cccc2nc3ccccc3nc12`, the GI50 in [1] was > 100 µM (inactive); in assay [2], > 100 µM (inactive); in assay [3], 71.6 µM (inactive); in [4] it was > 100 µM (inactive); in assay [5] it was > 100 µM (inactive); in [6] it was 59.3 µM (inactive). Moreover, the GI50 in assay [7] was 35.4 µM (inactive); in assay [8] it was > 100 µM (inactive); in assay [9], 35.9 µM (inactive); in assay [10], > 100 µM (inactive); in [11], > 100 µM (inactive); in assay [12], > 100 µM (inactive). The GI50 was > 100 µM (inactive) in [13]; > 100 µM (inactive) in [14]; > 100 µM (inactive) in assay [15]; > 100 µM (inactive) in assay [16]; > 100 µM (inactive) in [17]; 90.4 µM (inactive) in [18]. Also, the GI50 is 94.8 µM (inactive) in assay [19] and 35.6 µM (inactive) in assay [20].

`C=C(Br)C/N=C/N(C)C`: the GI50 in assay [1], in assay [2], in assay [3], in assay [4], in assay [5] and in assay [6] was > 100 µM (inactive) throughout. The GI50 in assay [7], in assay [8], in [9], in [10], in [11] and in assay [12] was > 100 µM (inactive) in each case. Besides, the GI50 in [13], in [14], in [15], in assay [16], in [17] and in assay [18] was > 100 µM (inactive) each time. In addition, the GI50 in assay [19] and in [20] was > 100 µM (inactive) each time.

For the molecule `O=c1c2cc(-c3ccccc3)sc2nc2n1N=C(c1ccc(Cl)cc1)CS2`, the GI50 in assay [1], in assay [2], in assay [3], in [4], in [5] and in assay [6] was > 100 µM (inactive) in each case. The GI50 in assay [7], in [8], in [9], in assay [10], in [11] and in assay [12] was > 100 µM (inactive) throughout. The GI50 in [13], in assay [14], in [15], in assay [16], in assay [17] and in assay [18] was > 100 µM (inactive) each time. Moreover, the GI50 in assay [19] and in [20] was > 100 µM (inactive) each time.

As for `CCOCCOC(=O)C1CCC(=O)N1CN(C(C)=O)c1cc(OC)ccc1OC` (stereo not given), the GI50 is > 100 µM (inactive) in assay [1]; > 100 µM (inactive) in [2]; > 100 µM (inactive) in [3]; 1 µM (active) in [4]; > 100 µM (inactive) in assay [5]; > 100 µM (inactive) in assay [6]. Also, the GI50 in assay [7], in assay [8], in assay [9], in assay [10], in assay [11] and in [12] was > 100 µM (inactive) each time. The GI50 in assay [13], in assay [14], in [15], in [16], in assay [17] and in assay [18] was > 100 µM (inactive) each time. Moreover, the GI50 in assay [19] and in assay [20] was > 100 µM (inactive) each time.

`Cc1nc2c(=O)[nH]c3ccc(Cl)cc3c2o1`: the GI50 in assay [1] is > 100 µM (inactive); in [2] it was 89.7 µM (inactive); in assay [3] it was > 100 µM (inactive); in assay [4], > 100 µM (inactive); in [5], > 100 µM (inactive); in [6], > 100 µM (inactive). For the same molecule, the GI50 in assay [7], in assay [8], in assay [9], in [10], in [11] and in assay [12] was > 100 µM (inactive) in each case. The GI50 in assay [13], in assay [14], in [15], in assay [16], in [17] and in [18] was > 100 µM (inactive) throughout. Moreover, the GI50 in assay [19] and in assay [20] was > 100 µM (inactive) each time.

Regarding `O=c1[nH]cc(/N=C/c2cc(Cl)cc(Cl)c2O)c(=O)[nH]1`, the GI50 in [1] is 21.8 µM (inactive); in assay [2], 17 µM (inactive); in [3] it was 24.1 µM (inactive); in assay [4], 14.3 µM (inactive); in assay [5], > 100 µM (inactive); in [6] it was 47.3 µM (inactive). Further, the GI50 in assay [7] was 23.5 µM (inactive); in assay [8], 24.6 µM (inactive); in [9], 24.6 µM (inactive); in assay [10], 24.7 µM (inactive); in assay [11] it was 43.1 µM (inactive); in assay [12], 26.2 µM (inactive). Besides, the GI50 was 26.1 µM (inactive) in [13]; 20.6 µM (inactive) in assay [14]; 27.8 µM (inactive) in [15]; 20.7 µM (inactive) in assay [16]; 22.1 µM (inactive) in assay [17]; 23.4 µM (inactive) in assay [18]. Also, the GI50 in [19] is 35.2 µM (inactive); in assay [20], 29.2 µM (inactive).

As to `CC/C(Cl)=N\OC(=O)Nc1ccc(OC)c(C)c1`, the GI50 in [1] is 15 µM (inactive); in assay [2], 16.4 µM (inactive); in [3], 17.4 µM (inactive); in assay [4] it was 3.04 µM (inactive); in [5], 20.6 µM (inactive); in assay [6], 80.4 µM (inactive). The GI50 is 34.2 µM (inactive) in [7]; 0.832 µM (active) in assay [8]; 15 µM (inactive) in [9]; 58.6 µM (inactive) in [10]; 17.5 µM (inactive) in assay [11]; 14.6 µM (inactive) in assay [12]. The GI50 in [13] was 34.4 µM (inactive); in assay [14], 12.6 µM (inactive); in assay [15] it was 15.7 µM (inactive); in [16] it was 12.5 µM (inactive); in assay [17], 11.9 µM (inactive); in assay [18] it was 26.4 µM (inactive). For the same molecule, the figures for the GI50 in assay [19] and in [20] were 15.9 µM (inactive) and 18.7 µM (inactive), respectively.

Take `CC(=O)c1ccc(Nc2c3ccccc3nc3occc23)cc1`: the GI50 in assay [1] was < 0.01 µM (active); in assay [2] it was < 0.01 µM (active); in assay [3] it was < 0.01 µM (active); in assay [4] it was < 0.01 µM (active); in assay [5], 0.0371 µM (active); in assay [6], < 0.01 µM (active). Besides, the 50% growth inhibitory concentration (GI50) in assay [7] is < 0.01 µM (active); in assay [8] it was < 0.01 µM (active); in [9] it was 0.175 µM (active); in [10] it was 0.0402 µM (active); in assay [11] it was 0.0174 µM (active); in [12] it was < 0.01 µM (active). The 50% growth inhibitory concentration (GI50) in assay [13] was 0.0127 µM (active); in [14] it was < 0.01 µM (active); in [15], < 0.01 µM (active); in [16], < 0.01 µM (active); in assay [17], < 0.01 µM (active); in assay [18], 0.168 µM (active). Moreover, the GI50 in assay [19] was 0.0172 µM (active); in assay [20] it was < 0.01 µM (active).

As to `CCO[C@H]1O[C@@H]2OC3(C)CCC4[C@H](C)CCC([C@H]1C)[C@]42OO3` (stereo not given in full), the GI50 in assay [1] is 23 µM (inactive); in assay [2], > 73.8 µM (inactive); in assay [3], > 84.7 µM (inactive); in assay [4], 10.3 µM (inactive); in assay [5], > 95.5 µM (inactive); in assay [6], > 20.2 µM (inactive). Also, the GI50 in [7] was 19.1 µM (inactive); in assay [8], > 100 µM (inactive); in assay [9], 32.1 µM (inactive); in [10] it was > 100 µM (inactive); in [11] it was 0.881 µM (active); in assay [12] it was > 100 µM (inactive). For the same molecule, the GI50 in assay [13] is > 100 µM (inactive); in assay [14], 35.2 µM (inactive); in assay [15], 15.9 µM (inactive); in [16] it was 57.5 µM (inactive); in assay [17], 3.3 µM (inactive); in assay [18], > 100 µM (inactive). The GI50 in assay [19] was 68.2 µM (inactive); in [20], 49.7 µM (inactive).
